One assay has as its system female Wistar rats. Description: randomized bioassay, effect on plasma calcium after tail vein injection (Example 2). The format is in vivo. Here is the method:
After preliminary experiments had shown that the time courses of the effects of PDN 21 and human calcitonin (hCT) on plasma calcium were similar, peptide in acetate buffer was injected into the tail vein of female Wistar rats (mean wt 45 g, range 43―48, Oxfordshire Laboratory Animal Colonies (1976) Ltd.) and blood was taken from the aorta after 30 min in a randomized bioassay (Macintyre, I. Galante, L. S. & Hillyard, C. J. in Handbuch der inneren MedizinVllIA(eds) Kuhlen- cordt, F. & Bartelheimer, H. 623-634 (Springer-Verlag, Heidelberg, 1980)). Plasma calcium was measured colormetrically by the method of (Gindler, E. M. & King, J. D. Amer. J.Clin. Path. 58, 376―382 (1972)), and the values confirmed by atomic absorption spectrophotometry. The results are shown graphically in Figure 3. Each point is the mean from three rats 0 PDN-21; A hCT (WHO 1st International Reference Preparation of Calcitonin Hormone for Bioassay, 70/234 supplied by the National Institute for Biological Standards and Control); DhCT+PDN-21 (800 ng PDN 21 was injected with each dose of calcitonin). […] Smoothed curves were fitted to the data by eye. […] Potencies were calculated in terms of hCT over the dose ranges where the log dose response is linear, yielding values of 0.017 milliunits hCT equivalent/ng PDN-21 and 5.11 milliunits hCT equivalent/milliunit hCT in the hCT+PDN-21 group. […]

For assay [1] the following is noted: literature (Gudmundson et al. 1966); cited from earlier work.

As for human calcitonin [hCT], the “enhancement of the potency of hCT” value in the assay on female Wistar rats (in the presence of a maximal dose of PDN-21, plasma calcium in the rat) is “five-fold”. In the assay with female Wistar rats (tail vein injection, blood after 30 min, probit transformation), the “dose giving 50% response (ED50), plasma calcium” value came out at 0.71 MRC milliunits. In the case of calcitonin, in assay [1], the “effect on plasma phosphate” value is recorded as “lowers”.
